# Data published in paper PMC3511273, “Identification of PPARgamma Partial Agonists of Natural Origin (I): Development of a Virtual Screening Procedure and In Vitro Validation” (PLoS ONE, 2012).
# Like-named read-outs stand apart in the source and are kept apart here.
# Biological target: T1, PPARγ ligand-binding domain (PPARγ LBD) (Homo sapiens, UniProt P37231)
# T1 construct: gene PPARG
# T1 sequence (P37231 238-505 limits assumed): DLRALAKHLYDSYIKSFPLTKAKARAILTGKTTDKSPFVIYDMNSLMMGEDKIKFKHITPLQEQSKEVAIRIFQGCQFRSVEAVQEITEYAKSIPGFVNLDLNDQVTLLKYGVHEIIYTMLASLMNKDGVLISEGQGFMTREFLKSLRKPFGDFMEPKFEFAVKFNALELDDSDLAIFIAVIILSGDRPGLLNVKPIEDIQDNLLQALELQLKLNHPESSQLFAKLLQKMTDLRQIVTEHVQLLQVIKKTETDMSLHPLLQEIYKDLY
# Assay: fluorescence polarization competition (PolarScreen PPARγ Competitor Assay Green)
# [1] = displacement of fluorescent PPARγ ligand, ex 485 nm, em 535 nm, unreliable
Structure (SMILES),IC50 [1] [µM],IC50 (read-out: Binding affinityIC50) [µM]
"Cc1ccc(C2(CC(=O)O)CCOC(C)(C)C2)cc1 (stereo not drawn) [C2, ZINC00201868]",> 8000,–
"COc1ccc(C(O)=C2C(=O)C(=O)N(Cc3cccnc3)C2c2ccc(O)cc2)c(C)c1 (stereo not drawn) [C3, ZINC00914339]",> 8000,–
"CC(C)C(NC(=O)C(Cc1ccccc1)n1c(=O)[nH]c2ccccc2c1=O)C(=O)O (stereo not drawn) [C5, ZINC02128851]",–,1000
"Cc1ccc(C(c2ccc(C)o2)c2ccccc2C(=O)O)o1 [C7, ZINC03846929]",–,252
"Cc1cc(C)c2c(O)nn(C3CCOC(C)(C)C3)c2n1 (stereo not drawn) [C8, ZINC04040746]",–,460
"CC1(C)SC2c3ccccc3C(=O)N2C1C(=O)NC(Cc1ccccc1)C(=O)O (stereo not drawn) [C9, ZINC04085288]",–,585
"C=C(C)COc1ccc2oc(-c3ccccc3)c(C(=O)O)c2c1 [C1, ZINC00083676]",–,12.4
"CC(C)C[C@H](NC(=O)OCC1c2ccccc2-c2ccccc21)C(=O)O [FMOC, reference compound]",–,18.5
"Cc1oc2c(C)c3oc(=O)c(CC(=O)N4CCC(C(=O)O)CC4)c(C)c3cc2c1C [C6, ZINC02156886]",> 8000,–
